The assay has as its target PIK3CA (human) (UniProt P42336). In words: Enzyme Assay.

PIK3CA (human), sequence (P42336 whole entry, looked up): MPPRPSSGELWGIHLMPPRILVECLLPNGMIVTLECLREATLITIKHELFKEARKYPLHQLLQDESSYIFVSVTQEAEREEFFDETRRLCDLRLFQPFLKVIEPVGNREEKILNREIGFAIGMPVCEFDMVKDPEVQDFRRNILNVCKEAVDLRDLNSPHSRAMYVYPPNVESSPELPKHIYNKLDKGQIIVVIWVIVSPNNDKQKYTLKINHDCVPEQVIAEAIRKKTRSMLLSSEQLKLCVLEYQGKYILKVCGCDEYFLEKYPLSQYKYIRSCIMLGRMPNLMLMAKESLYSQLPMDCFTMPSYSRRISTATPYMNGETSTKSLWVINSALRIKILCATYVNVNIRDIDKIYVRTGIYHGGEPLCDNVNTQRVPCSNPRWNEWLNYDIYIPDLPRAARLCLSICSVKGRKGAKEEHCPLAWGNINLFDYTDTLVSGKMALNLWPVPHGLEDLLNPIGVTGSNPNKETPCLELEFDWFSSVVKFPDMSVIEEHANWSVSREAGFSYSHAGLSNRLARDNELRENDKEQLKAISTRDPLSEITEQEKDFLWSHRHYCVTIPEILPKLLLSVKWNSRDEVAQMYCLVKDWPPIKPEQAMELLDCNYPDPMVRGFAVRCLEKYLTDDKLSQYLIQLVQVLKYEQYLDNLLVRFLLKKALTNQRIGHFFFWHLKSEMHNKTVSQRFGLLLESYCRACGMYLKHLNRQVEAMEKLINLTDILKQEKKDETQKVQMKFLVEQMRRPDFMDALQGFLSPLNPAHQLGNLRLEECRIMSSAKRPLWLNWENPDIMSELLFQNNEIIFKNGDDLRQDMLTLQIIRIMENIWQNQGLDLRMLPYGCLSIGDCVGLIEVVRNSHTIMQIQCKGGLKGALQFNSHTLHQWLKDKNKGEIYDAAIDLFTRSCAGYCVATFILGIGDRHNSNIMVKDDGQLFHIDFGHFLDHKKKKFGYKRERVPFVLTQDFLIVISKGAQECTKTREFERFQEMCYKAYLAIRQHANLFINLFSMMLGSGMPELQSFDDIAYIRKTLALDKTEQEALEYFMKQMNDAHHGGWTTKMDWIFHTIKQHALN

Broadly, the IC50 is the concentration that gives 50% inhibition. A higher IC50 goes with a need for much substance. Turning to `COC(=O)Nc1ccc(-c2ccc3ncc4c(c3c2)n(-c2ccc(F)c(Cl)c2)c(=O)n4C)cn1`, the IC50 was determined as 94 nM.

Consider `CNC(=O)Nc1ccc(-c2ccc3ncc4c(c3c2)n(-c2ccc(F)cc2)c(=O)n4C)cn1`, for which the IC50 is 8 nM. Next, `CNC(=O)Nc1ccc(-c2ccc3ncc4c(c3c2)n(-c2ccc(F)cc2C)c(=O)n4C)cn1`: 12 nM; `Cn1c(=O)n(-c2ccc(C(C)(C)C#N)cc2)c2c3cc(-c4cncc(OCCF)c4)ccc3ncc21`: 23 nM.

Take `COC(=O)Nc1cncc(-c2ccc3ncc4c(c3c2)n(-c2cccc(Cl)c2C)c(=O)n4C)c1`: the IC50 was 80 nM.

In turn, `COCC(=O)Nc1ccc(-c2ccc3ncc4c(c3c2)n(-c2ccc(C(C)(C)C#N)cc2)c(=O)n4C)cn1` returned an IC50 of 15 nM. `COC(=O)Nc1ccc(-c2ccc3ncc4c(c3c2)n(-c2cccc(C(F)(F)F)c2C)c(=O)n4C)cn1`: the IC50 stood at 15 nM. For the compound `Cc1ncc(-c2ccc3ncc4c(c3c2)n(-c2cccc(F)c2C)c(=O)n4C)cc1OCCF`, the IC50 amounted to 21 nM. This IC50 and that of the compound before are within 1.5-fold of each other. `Cn1c(=O)n(-c2ccc(C(C)(C)C#N)cc2)c2c3cc(-c4cncc(OCC(F)(F)F)c4)ccc3ncc21`: the IC50 was found to be 19 nM. This IC50 and that of the compound before are within 1.5-fold of each other. For the compound `CNC(=O)Nc1ccc(-c2ccc3ncc4c(c3c2)n(-c2ccc(Cl)cc2Cl)c(=O)n4C)cn1`, the IC50 was determined as 87 nM. Compared with the last compound, the IC50 is about 4.6-fold higher.

Consider `C=CC(=O)Nc1ccc(-c2ccc3ncc4c(c3c2)n(-c2cccc(F)c2C)c(=O)n4C)cn1`, for which the IC50 came out at 52 nM. `CNC(=O)Nc1ccc(-c2ccc3ncc4c(c3c2)n(-c2cccc(F)c2C)c(=O)n4C)cn1` came in with an IC50 of 7 nM. For `COC(=O)Nc1ccc(-c2ccc3ncc4c(c3c2)n(-c2ccc(Cl)cc2Cl)c(=O)n4C)cn1`, the IC50 was determined as 85 nM.

For the compound `CNC(=O)Nc1ccc(-c2ccc3ncc4c(c3c2)n(-c2ccc(Cl)cc2C)c(=O)n4C)cn1`, the IC50 was 9 nM. This IC50 lies about 9.4-fold lower than the previous one. `COCC(=O)Nc1ccc(-c2ccc3ncc4c(c3c2)n(-c2ccc(F)c(C(F)(F)F)c2)c(=O)n4C)cn1` yielded an IC50 of 90 nM. In the case of `Cc1ncc(-c2ccc3ncc4c(c3c2)n(-c2ccc(C(C)(C)C#N)cc2)c(=O)n4C)cc1OC(F)F`, the IC50 was 133 nM. `CNC(=O)Nc1ccc(-c2ccc3ncc4c(c3c2)n(-c2cccc(Cl)c2F)c(=O)n4C)cn1`: the half-inhibitory concentration (IC50) is 3 nM.

In turn, `C/C=C/C(=O)Nc1ccc(-c2ccc3ncc4c(c3c2)n(-c2ccc(C(C)(C)C#N)cc2)c(=O)n4C)cn1` gave an IC50 of 14 nM.

Compound `CCOC(=O)Nc1ccc(-c2ccc3ncc4c(c3c2)n(-c2cccc(C(F)(F)F)c2)c(=O)n4C)cn1` yielded an IC50 of 103 nM. Next, `COC(=O)Nc1ccc(-c2ccc3ncc4c(c3c2)n(-c2cccc(C)c2C)c(=O)n4C)cn1`: 31 nM. Consider `CNC(=O)Nc1ccc(-c2ccc3ncc4c(c3c2)n(-c2cccc(F)c2)c(=O)n4C)cn1`, for which the IC50 amounted to 21 nM.

On to `CNC(=O)Nc1ccc(-c2ccc3ncc4c(c3c2)n(-c2ccccc2C)c(=O)n4C)cn1`, for which the IC50 is 12 nM. Against the preceding compound, the IC50 is about 1.8-fold lower. `C#Cc1cncc(-c2ccc3ncc4c(c3c2)n(-c2cccc(C(F)(F)F)c2)c(=O)n4C)c1`: the IC50 was determined as 22 nM. Compared with the last compound, the IC50 is about 1.8-fold higher. Next, `Cc1ncc(-c2ccc3ncc4c(c3c2)n(-c2ccc(C(C)(C)C#N)cc2)c(=O)n4C)cc1OCCF`: 5 nM; `COC(=O)Nc1cncc(-c2ccc3ncc4c(c3c2)n(-c2cccc(C(F)(F)F)c2)c(=O)n4C)c1`: 146 nM; `CNC(=O)Nc1ccc(-c2ccc3ncc4c(c3c2)n(-c2ccc(C(C)(C)C#N)cc2)c(=O)n4C)cn1`: 21 nM.

As for `Cn1c(=O)n(-c2ccc(C(C)(C)C#N)cc2)c2c3cc(-c4ccc(NC(=O)NCCO)nc4)ccc3ncc21`, the IC50 turned out to be 22 nM. This IC50 and that of the compound before are within 1.5-fold of each other. Under `CNC(=O)Nc1ccc(-c2ccc3ncc4c(c3c2)n(-c2ccccc2C(F)(F)F)c(=O)n4C)cn1` stands 4 nM; under `Cn1c(=O)n(-c2ccc(C(C)(C)C#N)cc2)c2c3cc(-c4ccc(NC(=O)C(F)(F)F)nc4)ccc3ncc21`, 33 nM. For the compound `CNC(=O)Nc1ccc(-c2ccc3ncc4c(c3c2)n(-c2c(C)cccc2C)c(=O)n4C)cn1`, the IC50 was 107 nM. As for `Cn1c(=O)n(-c2cccc(C(F)(F)F)c2)c2c3cc(-c4cncc(OCCF)c4)ccc3ncc21`, the IC50 was 115 nM. The IC50 values of the last two compounds are within 1.5-fold of each other. Consider `Cn1c(=O)n(-c2ccc(C(C)(C)C#N)cc2)c2c3cc(-c4ccc(NC=O)nc4)ccc3ncc21`, for which the half-inhibitory concentration (IC50) was determined as 19 nM.

On to `COCC(=O)Nc1cncc(-c2ccc3ncc4c(c3c2)n(-c2ccc(C(C)(C)C#N)cc2)c(=O)n4C)c1`, for which the IC50 is 63 nM. Under `CNC(=O)Nc1ccc(-c2ccc3ncc4c(c3c2)n(-c2ccc(N3CCN(C)CC3)c(C(F)(F)F)c2)c(=O)n4C)cn1` stands 3 nM; under `COC(=O)Nc1ccc(-c2ccc3ncc4c(c3c2)n(-c2cccc(C(F)(F)F)c2)c(=O)n4C)cn1`, 6 nM. For `Cn1c(=O)n(-c2ccc(C(C)(C)C#N)cc2)c2c3cc(-c4cncc(OCC#N)c4)ccc3ncc21`, the IC50 was 22 nM. The compound `Cn1c(=O)n(-c2ccc(C(C)(C)C#N)cc2)c2c3cc(-c4ccc(NC(=O)NC5CCOC5)nc4)ccc3ncc21` (stereo unspecified) had an IC50 of 44 nM. Regarding `Cn1c(=O)n(-c2ccc(C(C)(C)C#N)cc2)c2c3cc(-c4ccc(NC(=O)C5CC5)nc4)ccc3ncc21`, the IC50 came out at 6 nM. This IC50 lies about 7.3-fold lower than the previous one. Under `Cc1c(F)cccc1-n1c(=O)n(C)c2cnc3ccc(-c4cncc(OCC#N)c4)cc3c21` stands 66 nM; under `COC(=O)Nc1ccc(-c2ccc3ncc4c(c3c2)n(-c2ccc(C(F)(F)F)nc2C)c(=O)n4C)cn1`, 2.4 nM. The compound `COCC(=O)Nc1ccc(-c2ccc3ncc4c(c3c2)n(-c2cccc(C(F)(F)F)c2)c(=O)n4C)cn1` registered an IC50 of 32 nM. The compound `CNC(=O)Nc1ccc(-c2ccc3ncc4c(c3c2)n(-c2cccc(C(F)(F)F)c2)c(=O)n4C)cn1` registered an IC50 of 2 nM. For the compound `COCc1ccc(-c2ccc3ncc4c(c3c2)n(-c2ccc(C(C)(C)C#N)cc2)c(=O)n4C)cn1`, the IC50 turned out to be 44 nM. This IC50 lies about 22-fold higher than the previous one. Turning to `COC(=O)Nc1ccc(-c2ccc3ncc4c(c3c2)n(-c2ccc(F)c(C(F)(F)F)c2)c(=O)n4C)cn1`, the IC50 is 25 nM.

Turning to `COC(=O)Nc1ccc(-c2ccc3ncc4c(c3c2)n(-c2cccc(F)c2Cl)c(=O)n4C)cn1`, the half-inhibitory concentration (IC50) came to 16 nM. Next, `COC(=O)Nc1ccc(-c2ccc3ncc4c(c3c2)n(-c2ccccc2C(F)(F)F)c(=O)n4C)cn1`: 12 nM. Regarding `COCCOc1cc(-c2ccc3ncc4c(c3c2)n(-c2cccc(C(F)(F)F)c2)c(=O)n4C)cnc1C`, the IC50 worked out at 40 nM.

Compound `Cn1c(=O)n(-c2ccc(F)c(Cl)c2)c2c3cc(-c4cncc(OCCF)c4)ccc3ncc21` returned a half-maximal inhibitory concentration (IC50) of 47 nM. `COC(=O)Nc1ccc(-c2ccc3ncc4c(c3c2)n(-c2cccc(F)c2C)c(=O)n4C)cn1` registered an IC50 of 40 nM.

Take `C#Cc1cncc(-c2ccc3ncc4c(c3c2)n(-c2ccc(C(C)(C)C#N)cc2)c(=O)n4C)c1`: the IC50 came to 12 nM. In turn, `COC(=O)Nc1ccc(-c2ccc3ncc4c(c3c2)n(-c2cccc(Cl)c2F)c(=O)n4C)cn1` had an IC50 of 4 nM. Next, `Cn1c(=O)n(-c2cccc(C(F)(F)F)c2)c2c3cc(-c4ccc(NC(=O)CC#N)nc4)ccc3ncc21`: 18 nM.

Compound `Cn1c(=O)n(-c2ccc(C(C)(C)C#N)cc2)c2c3cc(-c4cncc(OC(F)F)c4)ccc3ncc21` showed an IC50 of 10 nM. `CNC(=O)Nc1ccc(-c2ccc3ncc4c(c3c2)n(-c2cccc(Cl)c2C)c(=O)n4C)cn1` registered an IC50 of 6 nM. This IC50 lies about 1.7-fold lower than the previous one. Next, `Cc1ncc(-c2ccc3ncc4c(c3c2)n(-c2cccc(C(F)(F)F)c2)c(=O)n4C)cc1OCCF`: 14 nM. For the compound `COC(=O)Nc1ccc(-c2ccc3ncc4c(c3c2)n(-c2cccc(Cl)c2C)c(=O)n4C)cn1`, the IC50 came out at 27 nM. In turn, `COC(=O)Nc1ccc(-c2ccc3ncc4c(c3c2)n(-c2ccccc2C)c(=O)n4C)cn1` registered an IC50 of 48 nM. Consider `C#Cc1ccc(-c2ccc3ncc4c(c3c2)n(-c2ccc(C(C)(C)C#N)cc2)c(=O)n4C)cn1`, for which the IC50 came out at 6 nM. `CNC(=O)Nc1ccc(-c2ccc3ncc4c(c3c2)n(-c2cccnc2OC)c(=O)n4C)cn1` displayed a half-maximal inhibitory concentration (IC50) of 19 nM. Compound `C=CC(=O)Nc1ccc(-c2ccc3ncc4c(c3c2)n(-c2ccc(C(C)(C)C#N)cc2)c(=O)n4C)cn1` registered an IC50 of 5 nM. Under `COCCOc1cncc(-c2ccc3ncc4c(c3c2)n(-c2ccc(F)c(C(F)(F)F)c2)c(=O)n4C)c1` stands 107 nM; under `C=CC(=O)Nc1ccc(-c2ccc3ncc4c(c3c2)n(-c2cccc(C(F)(F)F)c2)c(=O)n4C)cn1`, 45 nM; under `CNC(=O)Nc1ccc(-c2ccc3ncc4c(c3c2)n(-c2cccc(C)c2C)c(=O)n4C)cn1`, 3 nM. For `CNC(=O)Nc1ccc(-c2ccc3ncc4c(c3c2)n(-c2ccc(F)c(C(F)(F)F)c2)c(=O)n4C)cn1`, the IC50 amounted to 5 nM. This IC50 is about 1.7-fold higher than that of the compound before. On to `CNC(=O)Nc1ccc(-c2ccc3ncc4c(c3c2)n(-c2cccc(C(F)(F)F)c2C)c(=O)n4C)cn1`, for which the IC50 was found to be 1 nM.

The compound `Cn1c(=O)n(-c2ccc(C(C)(C)C#N)cc2)c2c3cc(-c4ccc(NC(=O)CC#N)nc4)ccc3ncc21` yielded an IC50 of 24 nM. The compound `COCCOc1cncc(-c2ccc3ncc4c(c3c2)n(-c2ccc(C(C)(C)C#N)cc2)c(=O)n4C)c1` registered an IC50 of 76 nM. `CNC(=O)Nc1ccc(-c2ccc3ncc4c(c3c2)n(-c2cccc(F)c2Cl)c(=O)n4C)cn1`: the IC50 was found to be 5 nM. As for `COC(=O)Nc1ccc(-c2ccc3ncc4c(c3c2)n(-c2cccnc2OC)c(=O)n4C)cn1`, the IC50 was determined as 57 nM. Compared with the last compound, the IC50 is about 11-fold higher. Regarding `COC(=O)Nc1cncc(-c2ccc3ncc4c(c3c2)n(-c2ccc(C(C)(C)C#N)cc2)c(=O)n4C)c1`, the IC50 was found to be 9 nM. Consider `COCCOc1cc(-c2ccc3ncc4c(c3c2)n(-c2ccc(C(C)(C)C#N)cc2)c(=O)n4C)cnc1C`, for which the IC50 stood at 18 nM.

(Values after the Kinase Knowledgebase extract (Sharma et al. 2016).)
